Patent US20190255086A1, “Compositions and Methods for Treating an Infection” (CMPD Licensing, LLC, priority 2015, published 2019)

Assays:
Aspergillus fumigatus = assay: Expected efficacy of anti-fungal agents against various fungi (Table 4)
Blastomyces dermatitidis = assay: as above
Candida species = assay: as above
Coccidioides immitis = details: expected efficacy
Cryptococcus neoformans = assay: Expected efficacy of anti-fungal agents against various fungi (Table 4)
Bacteroides fragilis = assay: Expected efficacy of anti-bacterial agents against various bacteria (Tables 5 and 6); details: Gram: anaer
Clostridium difficile = assay: as above; details: Gram: anaer
Chlamydia pneumoniae = assay: Expected efficacy of anti-bacterial agents against various bacteria (Tables 5 and 6); details: Gram: n/a
Chlamydia trachomatis = assay: Expected efficacy of anti-bacterial agents against various bacteria (Tables 5 and 6); details: Gram: n/a
Mycoplasma pneumoniae = assay: as above; details: Gram: n/a
Acinetobacter baumannii = assay: as above; details: Gram: neg
[1] = tested on: Acinetobacter calcoaceticus; assay: as above; details: Gram: neg
Acinetobacter lwoffii = assay: as above; details: Gram: neg
Bartonella bacilliformis = assay: as above; details: Gram: neg
Bordetella pertussis = assay: as above; details: Gram: neg
Campylobacter jejuni = assay: Expected efficacy of anti-bacterial agents against various bacteria (Tables 5 and 6); details: Gram: neg
Citrobacter diversus = assay: as above; details: Gram: neg
Citrobacter freundii = assay: as above; details: Gram: neg
Enterobacter aerogenes = assay: as above; details: Gram: neg
Enterobacter cloacae = assay: as above; details: Gram: neg
Enterobacter sakazakii = assay: as above; details: Gram: neg
Escherichia coli = assay: as above; details: Gram: neg
Haemophilus ducreyi = assay: Expected efficacy of anti-bacterial agents against various bacteria (Tables 5 and 6); details: Gram: neg
Haemophilus influenzae = assay: as above; details: Gram: neg
[2] = tested on: Haemophilus parainfluenzae; assay: as above; details: Gram: neg
[3] = tested on: Klebsiella (Calymmatobacterium) granulomatis; assay: as above; details: Gram: neg
Klebsiella oxytoca = assay: as above; details: Gram: neg
Klebsiella pneumoniae = assay: as above; details: Gram: neg
Moraxella catarrhalis = assay: Expected efficacy of anti-bacterial agents against various bacteria (Tables 5 and 6); details: Gram: neg
Morganella morganii = assay: as above; details: Gram: neg
Neisseria gonorrhoeae = assay: as above; details: Gram: neg
Neisseria meningitidis = assay: as above; details: Gram: neg
Proteus mirabilis = assay: as above; details: Gram: neg
Proteus vulgaris = assay: as above; details: Gram: neg
Providencia rettgeri = assay: as above; details: Gram: neg
Providencia stuartii = assay: as above; details: Gram: neg
Pseudomonas aeruginosa = assay: as above; details: Gram: neg
Pseudomonas fluorescens = assay: as above; details: Gram: neg
Salmonella typhi = assay: Expected efficacy of anti-bacterial agents against various bacteria (Tables 5 and 6); details: Gram: neg
Serratia marcescens = assay: as above; details: Gram: neg
Shigella boydii = assay: as above; details: Gram: neg
Shigella dysenteriae = assay: as above; details: Gram: neg
Shigella flexneri = assay: as above; details: Gram: neg
Shigella sonnei = assay: as above; details: Gram: neg
Vibrio cholerae = assay: as above; details: Gram: neg
Corynebacterium jeikeium = assay: Expected efficacy of anti-bacterial agents against various bacteria (Tables 5 and 6); details: Gram: pos
[4] = tested on: Corynebacterium urealyticum; assay: as above; details: Gram: pos
Diphtheroids = assay: as above; details: Gram: pos
Enterococcus faecalis = assay: as above; details: Gram: pos
Enterococcus faecium = assay: as above; details: Gram: pos
[5] = tested on: Methicillin resistant staph aureus (MRSA); assay: as above; details: Gram: pos
Peptostreptococcus = assay: as above; details: Gram: pos
[6] = tested on: Staphylococcus aureus (MSSA); assay: as above; details: Gram: pos
[7] = tested on: Staphylococcus epidermidis; assay: as above; details: Gram: pos
Streptococcus agalactiae = assay: as above; details: Gram: pos
Streptococcus pneumoniae = assay: as above; details: Gram: pos
Streptococcus pyogenes = assay: as above; details: Gram: pos
[8] = tested on: Viridans group streptococci; assay: as above; details: Gram: pos

OC(Cn1cncn1)(Cn1cncn1)c1ccc(F)cc1F [Fluconazole]
Efficacy of various antifungal agents (Aspergillus fumigatus): yes | Efficacy of various antifungal agents (Blastomyces dermatitidis): yes | Efficacy of various antifungal agents (Candida species): yes | Efficacy of various antifungal agents (Coccidioides immitis): yes | Efficacy of various antifungal agents (Cryptococcus neoformans): yes

CN[C@H](CC(C)C)C(=O)N[C@H]1C(=O)N[C@@H](CC(N)=O)C(=O)N[C@H]2C(=O)N[C@H]3C(=O)N[C@H](C(=O)N[C@H](C(=O)O)c4cc(O)cc(O)c4-c4cc3ccc4O)[C@H](O)c3ccc(c(Cl)c3)Oc3cc2cc(c3O[C@@H]2O[C@H](CO)[C@@H](O)[C@H](O)[C@H]2O[C@H]2C[C@](C)(N)[C@H](O)[C@H](C)O2)Oc2ccc(cc2Cl)[C@H]1O [Vancomycin]
Efficacy of various antibiotic agents (Bacteroides fragilis): no | Efficacy of various antibiotic agents (Clostridium difficile): yes | Efficacy of various antibiotic agents (Clostridium perfringens): no | Efficacy of various antibiotic agents (Chlamydia pneumoniae): no | Efficacy of various antibiotic agents (Chlamydia psittaci): no | Efficacy of various antibiotic agents (Chlamydia trachomatis): no | Efficacy of various antibiotic agents (Mycoplasma pneumoniae): no | Efficacy of various antibiotic agents (Acinetobacter baumannii): no | Efficacy of various antibiotic agents [1]: no | Efficacy of various antibiotic agents (Acinetobacter lwoffii): no | Efficacy of various antibiotic agents (Bartonella bacilliformis): no | Efficacy of various antibiotic agents (Bordetella pertussis): no | Efficacy of various antibiotic agents (Brucella species): no | Efficacy of various antibiotic agents (Campylobacter jejuni): no | Efficacy of various antibiotic agents (Citrobacter diversus): no | Efficacy of various antibiotic agents (Citrobacter freundii): no | Efficacy of various antibiotic agents (Enterobacter aerogenes): no | Efficacy of various antibiotic agents (Enterobacter cloacae): no | Efficacy of various antibiotic agents (Enterobacter sakazakii): no | Efficacy of various antibiotic agents (Escherichia coli): no | Efficacy of various antibiotic agents (Francisella tularensis): no | Efficacy of various antibiotic agents (Haemophilus ducreyi): no | Efficacy of various antibiotic agents (Haemophilus influenzae): no | Efficacy of various antibiotic agents [2]: no | Efficacy of various antibiotic agents [3]: no | Efficacy of various antibiotic agents (Klebsiella oxytoca): no | Efficacy of various antibiotic agents (Klebsiella pneumoniae): no | Efficacy of various antibiotic agents (Legionella pneumophila): no | Efficacy of various antibiotic agents (Moraxella catarrhalis): no | Efficacy of various antibiotic agents (Morganella morganii): no | Efficacy of various antibiotic agents (Neisseria gonorrhoeae): no | Efficacy of various antibiotic agents (Neisseria meningitidis): no | Efficacy of various antibiotic agents (Proteus mirabilis): no | Efficacy of various antibiotic agents (Proteus vulgaris): no | Efficacy of various antibiotic agents (Providencia rettgeri): no | Efficacy of various antibiotic agents (Providencia stuartii): no | Efficacy of various antibiotic agents (Pseudomonas aeruginosa): no | Efficacy of various antibiotic agents (Pseudomonas fluorescens): no | Efficacy of various antibiotic agents (Rickettsiae): no | Efficacy of various antibiotic agents (Salmonella typhi): no | Efficacy of various antibiotic agents (Serratia marcescens): no | Efficacy of various antibiotic agents (Shigella boydii): no | Efficacy of various antibiotic agents (Shigella dysenteriae): no | Efficacy of various antibiotic agents (Shigella flexneri): no | Efficacy of various antibiotic agents (Shigella sonnei): no | Efficacy of various antibiotic agents (Vibrio cholerae): no | Efficacy of various antibiotic agents (Yersinia pestis): no | Efficacy of various antibiotic agents (Corynebacterium jeikeium): yes | Efficacy of various antibiotic agents [4]: yes | Efficacy of various antibiotic agents (Diphtheroids): yes | Efficacy of various antibiotic agents (Enterococcus faecalis): yes | Efficacy of various antibiotic agents (Enterococcus faecium): yes, not VRE | Efficacy of various antibiotic agents [5]: yes | Efficacy of various antibiotic agents (Peptostreptococcus): yes | Efficacy of various antibiotic agents [6]: yes | Efficacy of various antibiotic agents [7]: yes | Efficacy of various antibiotic agents (Streptococcus agalactiae): yes | Efficacy of various antibiotic agents (Streptococcus pneumoniae): yes | Efficacy of various antibiotic agents (Streptococcus pyogenes): yes | Efficacy of various antibiotic agents [8]: yes
